Laboratory results reported in patent US20250197425A1, “2,6,9-TRISUBSTITUTED PURINES” (ASTRAZENECA AB, priority 2022, published 2025).
pIC50: −log10 of the molar value. Where two headings read alike, the source gives them in different places.

Legend:
[1] = system: POLR2A Ser2 phosphorylation (CDK9); assay: POLR2A Ser2 phosphorylation imaging assay in MCF-7 cells; assay type: cell-based; settings: Homo sapiens, MCF7, 2 h, read-out: POLR2A Ser2 phosphorylation IC50
How it was run: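 MCF-7 cells were fixed, permeabilised and immunostained for POLR2A phospho-Ser2, then imaged by high-content microscopy. Levels were normalised to controls and IC50 values derived.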

MCF-7 cells = assay: Cellular proliferation EdU assay, MCF-7; assay type: cell-based; settings: Homo sapiens, MCF7, 48 h, EdU assay, two days; read-out: MCF-7 IC50
How it was run: (§1)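 MCF-7 (800 cells/well) and OVCAR3 (1200 cells/well) in RPMI with 10% FBS exposed to compounds for two days at 37 °C.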

OVCAR3 cells [2] = assay: Cellular proliferation EdU assay, OVCAR3; assay type: cell-based, human; settings: Homo sapiens, OVCAR-3, 48 h, EdU assay, two days; read-out: OVCAR3 IC50
How it was run: as §1

[3] = Aqueous thermodynamic solubility, shake-flask; assay type: physicochemical; settings: aqueous phosphate buffer, 25 °C, pH 7.4, aqueous buffer, thermodynamic from solid, phosphate buffer 0.1 M, pH 7.4, 24 hours
How it was run: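 Dried compound (after DMSO evaporation) was equilibrated in 0.1 M phosphate buffer pH 7.4 with stirring for 24 h at 25° C. Undissolved material was removed by double centrifugation, and the supernatant was diluted in water and quantified by UPLC/MS/MS.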

[4] = biological target: 379 non-CDK kinase (or non-CDK kinase-complex) targets; assay: Kinase profiling (SelectScreen, ThermoFisher); assay type: biochemical; settings: compared with Compound 6
From the text: Test compounds were profiled against a broad panel of kinases at ThermoFisher Scientific using the SelectScreen Kinase Profiling Services. Each kinase assay used one of the following assay technology protocols: • 1) Z-LYTE™ Screening Protocol and Assay Conditions (Revised 23 Jan. 2018 version) available at http://assets.thermofisher.com/TFS-Assets/BID/Methods-&-Protocols/20180123_SSBK_Customer_Protocol_and_Assay_Conditions.pdf; • 2) Adapta™ Screening Protocol and Assay Conditions (Revised 23 Jan. 2018 version) available at http://assets.thermofisher.com/TFS-Assets/BID/Methods-&-Protocols/20180123_SSBK_Adapta_Customer_Protocol_and_Assay_Conditions.pdf; or • 3) LanthaScreen™ Eu Kinase Binding Assay Screening Protocol and Assay Conditions (Revised 23 Jan. 2018 version) available at http://assets.thermofisher.com/TFS-Assets/BID/Methods-&-Protocols/20180123_SSBK_LanthaScreen_Binding_Customer_Protocol_and_Assay_Co nditions.pdf.

[5] = system: 97 targets (GPCRs, ion channels, transporters, enzymes, kinases); assay: Secondary pharmacology panel (Eurofins CEREP); settings: compared with Compound 6
Description: Secondary pharmacology assays were performed at Eurofins CEREP using standard experimental techniques. Specifically, radioligand binding assays were used to assess the ability of test compounds to interact with G-protein coupled receptors (GPCRs), ion channels, and transmembrane transporters. Assays measuring substrate turnover or phosphorylation by isolated proteins were used for enzyme and kinase targets, allowing direct determination of the mode of action of the tested compounds.

OVCAR3 cells [6] = assay: Cell proliferation CyQUANT assay, OVCAR3; assay type: cell-based; settings: Homo sapiens, OVCAR-3, 168 h; CyQUANT cell counts, 7 days
Description: (§2) An imaging-based assay was used to investigate changes in cell number in OVCAR3 cells (CCNE1-amplified ovarian cancer cell line) and SKOV3 cells (non-amplified ovarian cancer cell line) treated with test compounds.
(§3) Cells were plated in 384 well plates (Perkin-Elmer 6057300) in RPMI-1640/10% FBS/1× L-Glu at 500 cells per well in 30 μL and incubated with test compound at 37° C. and 5% CO2 for 7 days. Cells were then stained using the CyQuant Direct Cell Proliferation Assay Kit (Thermo Cat #C7026) in accordance with the kit protocol. The stained cells were imaged using an Operetta high content imager to generate cell counts and IC50 values were calculated relative to DMSO controls.

SKOV3 cells = assay: Cell proliferation CyQUANT assay, SKOV3; assay type: cell-based; settings: Homo sapiens, SK-OV-3, 168 h; CyQUANT cell counts, 7 days
Description: as §2, §3

CDK2:CCNE1 = CDK2:CCNE1 (Homo sapiens (Human), UniProt P24941); assay: NanoBRET assay in MCF-7 cells, CDK2; assay type: cell-based; settings: transfected MCF-7 cells, 2 hours, n = 1 or average
How it was run: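 In live MCF-7 cells, compound added followed by NanoBRET TE Tracer K-9 (stock 200 μM) for CDK2, 2 h at 37° C, 5% CO2.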

CDK1:CCNB1 = CDK1:CCNB1 (Homo sapiens (Human), UniProt P06493); assay: NanoBRET assay in MCF-7 cells, CDK1; assay type: cell-based; settings: NanoBRET, transfected MCF-7 cells, 2 hours; n = 1 or average; read-out: CDK1 IC50
How it was run: (§4)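 Transiently transfected MCF-7 cells expressing CDK1:CCNB1 or CDK4:CCND1 were treated with compound plus tracer (CDK1: Tracer K-9, 400 μM stock; CDK4: Tracer K-7, 100 μM stock) for 2 h at 37 °C.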

CDK4:CCND1 = CDK4:CCND1 (Homo sapiens (Human), UniProt P11802); assay: NanoBRET assay in MCF-7 cells, CDK4; assay type: cell-based; settings: NanoBRET, transfected MCF-7 cells, 2 hours; n = 1 or average; read-out: CDK4 IC50
How it was run: as §4

[7] = system: NPM phosphorylation (Thr199, CDK2-cyclin E complex); assay: NPM phosphorylation imaging assay in MCF-7 cells; assay type: cell-based; settings: Homo sapiens, MCF7, 2 h, 4N DNA cells
How it was run: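 MCF-7 cells were fixed, permeabilised and immunostained, then imaged for phospho-NPM (Thr199), a CDK2-cyclin E site. Analysis was gated on 4N-DNA cells by Hoechst staining. Signals were normalised to controls and fitted for IC50.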

[8] = system: OVCAR3 human ovarian cancer xenograft; assay: Anti-tumor effect in CCNE1 amplified ovarian xenograft model OVCAR3; assay type: in vivo, mice
Description: 15 Million OVCAR3 human ovarian cells were implanted subcutaneously in the right flank of female CB17 SCID mice. Mice were randomized into groups of 8 when average tumor volume reached approximately 160 mm^3. […] Palbociclib was dosed orally once daily.

OVCAR3 cells [9] = assay: Effect on cell cycle in OVCAR3 cell line (flow cytometry); assay type: cell-based, human; settings: 20 to 24 hours, 0.03, 0.1, 0.3, 1, and 3 μM
Description: Compounds were tested in the CCNE1-amplified ovarian cell line OVCAR3 to assess their effect on cell cycle phases G1 and S and potential off-target effects on cell cycle phases G2 and M.
OVCAR3 cells were seeded at 60,000 cells per well in 24 well plates, 4 wells per sample, in RPMI with 10% Fetal bovine serum. Test compounds were diluted in 96 well plates in dimethyl sulfoxide (DMSO) and then added to the wells containing the cells. The 24 well plates were placed in an incubator maintained at 37° C. and 5% CO2 and incubated for 20 to 24 hours. The next day an EdU assay was performed following the manufacturer's protocol (Thermo Fisher, C10425 EdU Alexa Fluor 488). Antibody staining was carried out using PE Mouse Anti-Cleaved PARP (BD Biosciences Catalog No. 552933) and 4′,6-diamidino-2-phenylindole (DAPI). Cells were then analyzed by flow cytometry.

[10] = system: CTG-3298 human CDK4/6 resistant ER+ breast cancer xenograft; assay: Anti-tumor effect in CTG-3298 CDK4/6 resistant ER+ breast cancer xenograft model; assay type: in vivo, mice; settings: Palbociclib at 50 mg/kg orally once daily, 28 days
Description: CTG-3298 ER+ breast xenograft tumors were harvested from donor mice and cut into fragments approximately 50 mm^3 in volume and then reimplanted adjacent to the #3 mammary fat pad.
CTG-3298 ER+ Breast PDX fragments were implanted orthotopically adjacent to the #3 mammary fat pad using a 10-gauge trocar in female NSG mice. […] Palbociclib was dosed orally once daily.

[11] = system: CTG-3283 human CDK4/6 resistant ER+ breast cancer xenograft; assay: Anti-tumor effect in CTG-3283 CDK4/6 resistant ER+ breast cancer xenograft model; assay type: in vivo, mice; settings: Palbociclib at 50 mg/kg orally once daily, 28 days
Description: CTG-3283 ER+ breast xenograft tumors were harvested from donor mice and cut into fragments approximately 50 mm^3 in volume and then reimplanted adjacent to the #3 mammary fat pad.
CTG-3283 ER+ Breast PDX fragments were implanted orthotopically adjacent to the #3 mammary fat pad using a 10-gauge trocar in female NSG mice. […] Palbociclib was dosed orally once daily.

OVCAR3 cells [12] = assay: Senescence β-galactosidase assay, OVCAR3; assay type: cell-based, human; settings: 5 days, single agent
Description: Cells were then stained with a fluorescent dye to detect senescence-associated β-galactosidase (CellEvent Senescence Green detection kit, Thermo #C10850), diluted 1:1000 in the provided buffer, and incubated at 37° C. for 2 hours without CO2 in accordance with the manufacturer's instructions. DNA staining was performed using Hoechst 33342, diluted 1:2500 in PBS, for 15 minutes at room temperature, followed by two washes with PBS. Sample imaging was performed on a PerkinElmer Operetta CLS at lOX magnification to detect Hoechst 33342 (nuclei) and Alexa488 (senescence stain). Image analysis was performed in Harmony 4.1 software (PerkinElmer) to identify cells based on nuclear staining. Mean Alexa488 fluorescence intensity was measured within each cell, and the average was taken across all cells observed within each well. […] Data fitting was performed using Genedata Screener (Genedata AG) and combination effect was assessed using the highest single agent (HSA) model.

Sequence of CDK4:CCND1 (P11802 whole entry): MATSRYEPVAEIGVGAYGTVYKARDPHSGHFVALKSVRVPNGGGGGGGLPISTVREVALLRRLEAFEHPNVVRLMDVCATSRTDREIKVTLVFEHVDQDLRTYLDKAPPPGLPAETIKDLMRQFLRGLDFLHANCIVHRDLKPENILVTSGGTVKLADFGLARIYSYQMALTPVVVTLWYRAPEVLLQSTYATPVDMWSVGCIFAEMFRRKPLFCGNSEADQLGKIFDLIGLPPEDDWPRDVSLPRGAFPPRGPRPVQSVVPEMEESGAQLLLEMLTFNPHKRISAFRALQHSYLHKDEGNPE
Sequence of CDK4:CCND1 (P24385 whole entry partner): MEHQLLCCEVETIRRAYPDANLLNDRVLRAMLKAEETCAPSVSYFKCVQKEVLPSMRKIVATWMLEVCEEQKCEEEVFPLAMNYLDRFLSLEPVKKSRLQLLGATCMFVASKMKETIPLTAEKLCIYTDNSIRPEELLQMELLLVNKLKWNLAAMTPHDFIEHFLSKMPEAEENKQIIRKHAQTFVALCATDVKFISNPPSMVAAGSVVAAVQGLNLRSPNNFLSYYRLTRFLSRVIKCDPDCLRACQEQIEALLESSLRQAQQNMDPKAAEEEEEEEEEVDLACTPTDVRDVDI
Sequence of CDK1:CCNB1 (P06493 whole entry): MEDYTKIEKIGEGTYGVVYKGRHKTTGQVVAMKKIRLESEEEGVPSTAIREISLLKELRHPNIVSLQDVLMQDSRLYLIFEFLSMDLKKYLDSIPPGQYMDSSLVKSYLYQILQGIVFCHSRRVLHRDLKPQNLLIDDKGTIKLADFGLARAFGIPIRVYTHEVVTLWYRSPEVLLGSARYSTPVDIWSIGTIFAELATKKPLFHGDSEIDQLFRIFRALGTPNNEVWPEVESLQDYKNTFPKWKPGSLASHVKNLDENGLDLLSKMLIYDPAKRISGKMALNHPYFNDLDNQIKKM
Sequence of CDK1:CCNB1 (P14635 whole entry partner): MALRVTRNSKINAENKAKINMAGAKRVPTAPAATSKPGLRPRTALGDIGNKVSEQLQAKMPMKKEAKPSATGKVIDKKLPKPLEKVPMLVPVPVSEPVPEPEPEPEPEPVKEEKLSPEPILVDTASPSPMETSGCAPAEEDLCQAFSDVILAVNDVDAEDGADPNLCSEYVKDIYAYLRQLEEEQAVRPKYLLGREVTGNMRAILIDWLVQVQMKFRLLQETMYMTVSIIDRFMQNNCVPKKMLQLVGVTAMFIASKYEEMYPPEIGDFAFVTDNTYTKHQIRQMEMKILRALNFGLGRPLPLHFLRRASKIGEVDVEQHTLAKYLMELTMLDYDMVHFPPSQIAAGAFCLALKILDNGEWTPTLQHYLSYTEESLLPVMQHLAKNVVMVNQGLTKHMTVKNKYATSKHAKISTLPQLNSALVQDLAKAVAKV

Compound	pIC50 ([1]; MCF-7 cells, 2 hours)	pIC50 (MCF-7 cells)	pIC50 (OVCAR3 cells [2])	kinase inhibition profile [4]	pIC50 (OVCAR3 cells [6])	pIC50 (SKOV3 cells)	further results
CC[C@H](Nc1nc(N[C@H]2CCN(S(=O)(=O)c3ccn[nH]3)C2)c2ncn(CC)c2n1)[C@@H](C)O [Example 62, (2R,3S)-3-((6-(((S)-1-((1H-pyrazol-5-yl)sulfonyl)pyrrolidin-3-yl)amino)-9-ethyl-9H-purin-2-yl)amino)pentan-2-ol]	< 4.52	5.86	6.36	broadly similar kinase inhibition profiles to Compound 6	–	–	solubility at 24 h [3]: > 1000 µM; secondary pharmacology profile [5]: broadly similar secondary pharmacology to Compound 6
CC[C@H](Nc1nc(N[C@H]2CCN(S(=O)(=O)NC)C2)c2ncn(CC)c2n1)[C@@H](C)O [Example 44, (S)-3-((9-ethyl-2-(((2R,3S)-2-hydroxypentan-3-yl)amino)-9H-purin-6-yl)-amino)-N-methylpyrrolidine-1-sulfonamide]	< 4.54	6.23	6.62	broadly similar kinase inhibition profiles to Compound 6	6.88	5.04	–
O=S(=O)(c1ncc[nH]1)N1C[C@@H](F)[C@H](Nc2nc(N[C@@H](CO)C3CC3)nc3c2ncn3C(F)F)C1 (relative stereo) [Example 61, (R)-2-((6-(((3R*,4R*)-1-((1H-imidazol-2-yl)sulfonyl)-4-fluoropyrrolidin-3-yl)amino)-9-(difluoromethyl)-9H-purin-2-yl)amino)-2-cyclopropylethan-1-ol]	5.77	–	7.28	–	7.47	6.29	pIC50 (CDK2:CCNE1): 8.30; pIC50 (CDK1:CCNB1): 6.94; pIC50 (CDK4:CCND1): 6.10; pIC50 [7]: 7.77
CC(C)[C@H](CO)Nc1nc(N[C@H]2CCN(S(C)(=O)=O)C2)c2ncn(C(C)C)c2n1 [Compound 20, (R)-2-((9-isopropyl-6-(((S)-1-(methylsulfonyl)pyrrolidin-3-yl)amino)-9H-purin-2-yl)amino)-3-methylbutan-1-ol]	–	6.18	6.65	broadly similar kinase inhibition profiles to Compound 6	6.73	5.60	pIC50 [1]: < 4.52; activity and tolerability in xenograft model ([8]; OVCAR3 xenograft): active and well tolerated; effect on cell cycle phase (OVCAR3 cells [9]): increased the population of cells in the G0 and G1 phases
CC(=O)c1c(C)c2cnc(Nc3ccc(N4CCNCC4)cn3)nc2n(C2CCCC2)c1=O [Palbociclib, reference compound]	–	–	–	–	–	–	% INHIBITION ([8]; Palbociclib at 50 mg/kg orally once daily, 28 days): 9%; % INHIBITION (end of dosing) [10]: 49%; % INHIBITION (end of dosing) [11]: 46%; induction of senescence (OVCAR3 cells [12]): no effect was observed
